# Legend:
# [1] = Traditional forced degradation in bulk solution, acid (HCl), nanospray MS; details: 450 μg/mL
# From the text: (§1) Particularly, the degradation of three APIs in Leidenfrost droplets is exemplified, under conditions of constant volume achieved by adding make-up solvent automatically via a syringe pump during the levitation period. The data were compared with the degradation of the corresponding bulk material under similar conditions of solvent and temperature. In both droplet and bulk, degradation products are monitored by mass spectrometry and the ratio of products to reactants was used to infer the extent of reaction (Table 1).
# (§2) Traditional forced degradation was performed by preparing a stock stress solution of hydrochloric acid or hydrogen peroxide, and a stock solution of the compound of interest (the API). Then the solutions were mixed and allowed to react at a set temperature for a set period of time (FIG. 1A). The composition of the final reaction mixture was analyzed by nanospray MS and the data for the bulk phase experiments are given in Table 1. Likewise, the Leidenfrost reaction mixture was made by the same method, then instead of letting the mixed solution age at a set temperature, it was dropped into a ceramic well which was placed on hot plate held at a temperature of 540° C. to form a much cooler Leidenfrost droplet (FIG. 1B). […] Here, both bulk and Leidenfrost products are analyzed by using nanospray MS.
# [2] = Accelerated forced degradation in Leidenfrost droplets, acid (HCl), nanospray MS; format: physicochemical; details: 0.5M HCl, 90% propanol-10% H2O, without make-up solvent
# Experimental: The data were compared with the degradation of the corresponding bulk material under similar conditions of solvent and temperature. In both droplet and bulk, degradation products are monitored by mass spectrometry and the ratio of products to reactants was used to infer the extent of reaction (Table 1).
# as §2
# [3] = Traditional forced degradation in bulk solution, oxidative (H2O2), nanospray MS; format: physicochemical; details: 45 μg/mL, 0.3% H2O2, 90% methanol-10% H2O
# From the text: as §1, §2
# [4] = Accelerated forced degradation in Leidenfrost droplets, oxidative (H2O2), nanospray MS; format: physicochemical; details: 0.3% H2O2, 90% methanol-10% H2O
# From the text: as §1, §2
Structure (SMILES),"Bulk Time ([1]; 0.5M HCl, 90% propanol-10% H2O, bulk 80° C., time to reach Set Ratio 2.5%)","Set Ratio (products to reactants, extent of degradation) ([1]; 3 h)","Leidenfrost Time ([2]; 450 μg/mL, Leidenfrost droplet 80° C., time to reach Set Ratio 2.5%)","Accel. Factor ([2]; Leidenfrost droplet vs bulk, 80° C.)","Set Ratio (products to reactants, extent of degradation) ([3]; 40° C., reached after 1.5 h in bulk, 180 s in Leidenfrost droplet)","Bulk Time ([3]; bulk 40° C., time to reach Set Ratio 3%)","Leidenfrost Time ([4]; 45 μg/mL, Leidenfrost droplet 40° C., constant volume, time to reach Set Ratio 3%)","Accel. Factor ([4]; Leidenfrost droplet vs bulk, 40° C.)"
"NS(=O)(=O)c1cc2c(cc1Cl)NCNS2(=O)=O [Hydrochlorothiazide (HCTZ), Hydrochlorothiazide]",3 h,2.5%^,40 s,~270,,,,
"CN1CCN(CCCN2c3ccccc3Sc3ccc(C(F)(F)F)cc32)CC1 [Trifluoperazine (TFP), Trifluoperazine]",,,,,3%,1.5 h^,180 s,~20
